These results are taken from patent US5852028A, “Pyrimidine carboxylates and related compounds and methods for treating inflammatory conditions” (Signal Pharmaceuticals, Inc., priority 1995, dated 1998).

The term IC50 denotes the midpoint of a concentration-inhibition curve. Read a high IC50 as weaker potency.

The first test concerns mice.
Test: not given
The following applies: Morris et al., 1990; cited from earlier work.
With `O=P1(N(CCCl)CCCl)NCCCO1` (centres unmarked) [cyclophosphamide], the “activity in contact sensitivity model (delayed-type hypersensitivity to oxazolone)” value is “active”.

The subject of a further test is NFκB/AP-1. The test is described as follows: NFκB and AP-1 luciferase reporter gene assays in PMA/PHA-stimulated Jurkat T-cells. The following applies: Homo sapiens, stable Jurkat T-cells, PMA/PHA stimulation, 5 h. The test is classed as cell-based. From the text:
Stable human Jurkat T-cells containing an NFκB binding site (from the MHC promoter) fused to a minimal SV-40 promoter driving luciferase expression were used in this experiment. Cells were split to 3×10^5 cells/mL every 2-3 days (cell concentration should not exceed 1×10^6 cells/mL to keep the cells proliferating in log phase). These cells were counted, resuspended in fresh medium containing 10% Serum-Plus at a density of 1×10^6 cells/mL and plated in 96 well round bottom plates (200 μ.LAMBDA. per well) 18 hours prior to starting the experiment.
Compounds of this invention, dissolved in dimethyl sulfoxide (3.3, 0.33 and 0.03 μg/mL), were then added to the 96 well plates containing the cells and the plates were incubated for 0.5 h at 37° C. Then 50 ng/mL of phorbol 12-myristate-13-acetate (PMA) and 1 μg/mL of phytohemagglutinin (PHA) were added to each well and the cells were incubated for an additional 5 h at 37° C. The plates were centrifuged at 2200 RPM for 3 minutes at room temperature and then the medium was removed. To each well was added 60 μL of cell lysis buffer and the plates were left at room temperature for 0.25 h. Then 40 μL of each cell extract was transferred to a black 96 well plate and 50 μL of luciferase substrate buffer was added. Luminescence was immediately measured using a Packard TopCount.
For AP-1, the assay was run as described above for NFκB except stable Jurkat T-cells were used that contained a the -73 collagenase promoter driving luciferase expression. In addition, the concentration of PMA used was 5 ng/mL.
(In general: A reporter such as luciferase makes a cellular process visible.)
Consider `CCOC(=O)c1cnc(NN2C(=O)C=C(C)C2=O)nc1C(F)(F)F` [Example 20, Ethyl 2-[N-(1'-aminocitraconamide)]-4-trifluoromethylpyrimidine-5-carboxylate], for which the IC50 is 700 nM.

Consider `CCOC(=O)c1cnc(C(F)(F)F)nc1NN1C(=O)C=C(C)C1=O` [Example 21, Ethyl 4-[N-(1'-aminocitraconamide)]-2-trifluoromethylpyrimidine-5-carboxylate], for which the IC50 was found to be 500 nM. The same measure, in the same setting: under `CC(=O)c1cnc(NN2C(=O)C=C(C)C2=O)nc1C(F)(F)F` [Example 23, 5-acetyl-2-[N-(1'-aminocitraconamide)]-4-trifluoromethylpyrimidine] stands 5000 to 10000 nM. With `CCOC(=O)c1cnc(NN2C(=O)C=C(C)C2=O)nc1CC` [Example 36, Ethyl 2-[N-(1'-aminocitraconamide)]-4-ethylpyrimidine-5-carboxylate], the IC50 was 150 nM.

Regarding `CCCc1nc(NN2C(=O)C=C(C)C2=O)ncc1C(=O)OCC` [Example 37, Ethyl 2-[N-(1'-aminocitraconamide)]-4-propylpyrimidine-5-carboxylate], the IC50 stood at 150 nM.

`CCOC(=O)c1cnc(NN2C(=O)C=C(C)C2=O)nc1-c1cccs1` [Example 38, Ethyl 2-[N-(1'-aminocitraconamide)]-4-(2"-thiophenyl)pyrimidine-5-carboxylate] displayed an IC50 of 40 nM.

In turn, `CCOC(=O)c1cnc(NN2C(=O)C=C(c3ccccc3)C2=O)nc1C(F)(F)F` [Example 40, Ethyl 2-[N-(1'-amino-3'-phenylmaleimide)]-4-trifluoromethylpyrimidine-5-carboxylate] yielded an IC50 of 3000 nM. The same measure, in the same setting: under `CCOC(=O)c1cnc(NN2C(=O)C(C)=C(C)C2=O)nc1C(F)(F)F` [Example 41, Ethyl 2-[N-(1'-amino-3',4'-dimethylmaleimide)]-4-trifluoromethylpyrimidine-5-carboxylate] stands 5000 nM; under `CCOC(=O)c1cnc(N(C)N2C(=O)C=C(C)C2=O)nc1C(F)(F)F` [Example 42, Ethyl 2-[N-(1'-aminocitraconamide)-N-methyl]-4-trifluoromethylpyrimidine-5-carboxylate], 300 nM.

Consider `CCOC(=O)c1cnc(C(F)(F)F)nc1NN1C(=O)C(C)=C(C)C1=O` [Example 44, Ethyl 4-[N-(1'-amino-3',4'-dimethylmaleimido)]-2-trifluoromethylpyrimidine-5-carboxylate], for which the IC50 fell in the range of 10000 to 30000 nM. Same read-out and setting: under `CCOC(=O)c1cnc(NN2C(=O)C=C(C)C2=O)nc1C` [Example 46, Ethyl 2-[N-(1'-aminocitraconamido)]-4-methylpyrimidine-5-carboxylate] stands 4000 nM; under `CCOC(=O)c1cnc(NN2C(=O)C=C(C)C2=O)nc1C(F)(F)C(F)(F)F` [Example 48, Ethyl 2-[N-(1'-aminocitraconamido)]-4-pentafluoroethylpyrimidine-5-carboxylate], 90 nM; under `CCOC(=O)c1cnc(NN2C(=O)C=C(C)C2=O)nc1-c1ccccc1` [Example 50, Ethyl 2-[N-(1'-aminocitraconamido)]-4-phenylpyrimidine-5-carboxylate], 1000 nM. Same read-out and setting: under `CCOC(=O)c1cnc(NN2C(=O)C=C(C)C2=O)nc1Cc1ccccc1` [Example 52, Ethyl 2-[N-(1'-aminocitraconamido)]-4-benzylpyrimidine-5-carboxylate] stands 2000 nM; under `CCOC(=O)c1cnc(NN2C(=O)C=C(C)C2=O)nc1C(=O)OCC` [Example 64, Diethyl 2-[N-(1'-aminocitraconamido)]-pyrimidine-4,5-dicarboxylate], 1000 nM.

In another test the test system is C3H mice.
Test: not given
The following applies: Morris et al., 1990; cited from earlier work.
As for `O=P1(N(CCCl)CCCl)NCCCO1` (centres unmarked) [cyclophosphamide], the “activity in graft vs. host model (PLN assay)” value is “active”.
